Source: US12466813B2, “PRC1 inhibitors and methods of treatment therewith” (The Regents of the University of Michigan, priority 2018, dated 2025)
“Also recorded” adds a separate entry of the source.

Legend:
RING1B-BMI1 [1] = target: T1, RING1B-BMI1 (Homo sapiens, UniProt Q99496); assay: ITC binding of COMPOUND 1 to RING1B-BMI1
T1 sequence (Q99496 1-336): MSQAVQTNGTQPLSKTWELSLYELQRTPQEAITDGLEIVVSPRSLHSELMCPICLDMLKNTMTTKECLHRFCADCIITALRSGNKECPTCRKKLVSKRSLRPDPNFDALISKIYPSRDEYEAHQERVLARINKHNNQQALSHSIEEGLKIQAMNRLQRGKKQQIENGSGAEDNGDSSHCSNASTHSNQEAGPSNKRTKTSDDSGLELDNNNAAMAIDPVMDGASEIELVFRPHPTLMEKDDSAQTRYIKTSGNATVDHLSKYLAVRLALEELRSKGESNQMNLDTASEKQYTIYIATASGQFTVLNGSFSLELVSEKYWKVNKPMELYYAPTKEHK
T1 sequence (P35226 1-326 partner): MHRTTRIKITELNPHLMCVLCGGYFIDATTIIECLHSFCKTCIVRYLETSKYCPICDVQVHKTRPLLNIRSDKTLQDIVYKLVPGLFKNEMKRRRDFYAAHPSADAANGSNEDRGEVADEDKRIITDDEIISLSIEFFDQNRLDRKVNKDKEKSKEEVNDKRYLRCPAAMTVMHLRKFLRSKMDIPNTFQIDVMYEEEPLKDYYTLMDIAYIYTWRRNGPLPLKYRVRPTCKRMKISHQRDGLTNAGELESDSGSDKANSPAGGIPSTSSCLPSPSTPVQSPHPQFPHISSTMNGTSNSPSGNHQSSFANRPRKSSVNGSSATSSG
Experimental: FIG. 1. […] A. structure of COMPOUND 1. B. ITC experiments showing the binding of COMPOUND 1 to RING1B-BMI1. C. Assigned NMR spectrum of RING1B-BMI1 with DMSO and COMPOUND 1 in 1-2 molar ratio.
(§1) Experiments were conducted during development of embodiments herein to develop small molecule inhibitors of PRC1 by targeting the Ring1B-BMI1 E3 ligase. These compounds bind directly to Ring1B-Bmi1 with low-micromolar affinity and inhibit PRC1 in vitro and in cells. […] Experiments were conducted during development of embodiments herein to test COMPOUND 1 in leukemia stem cell models represented by TEX cells (Ref. 22; herein incorporated by reference in its entirety) and M9-ENL1 cells (Ref. 23; herein incorporated by reference in its entirety). […] In some embodiments, COMPOUND 1 and COMPOUND 1 analogs are find use as agents in targeting leukemia and other cancer stem cells.

RING1B-BMI1 [2] = target: T1, RING1B-BMI1; assay: KD classes of Table A (direct binding to Ring1B-Bmi1); settings: class given in Table A
RING1B-BMI1 [3] = target: T1, RING1B-BMI1; assay: RING1B-BMI1 E3 ligase (H2Aub) activity in vitro; assay type: biochemical
Experimental: (§2) FIG. 2. COMPOUND 1 inhibits PRC1 in vitro. […] C.
as §1

RING1B-PCGF1 = target: T2, RING1B-PCGF1 (Homo sapiens, UniProt Q99496); assay: RING1B-PCGF1 E3 ligase activity in vitro; assay type: biochemical; settings: FIG. 2B
T2 sequence (Q99496 1-336): T1 sequence (Q99496 1-336)
T2 sequence (Q9BSM1 1-259 partner): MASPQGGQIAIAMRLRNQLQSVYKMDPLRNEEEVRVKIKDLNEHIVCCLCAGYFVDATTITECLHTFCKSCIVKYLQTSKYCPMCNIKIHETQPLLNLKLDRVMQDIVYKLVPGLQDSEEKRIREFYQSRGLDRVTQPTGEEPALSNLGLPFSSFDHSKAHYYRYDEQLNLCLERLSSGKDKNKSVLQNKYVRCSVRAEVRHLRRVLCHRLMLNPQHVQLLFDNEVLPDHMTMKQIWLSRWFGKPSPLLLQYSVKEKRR
Description: as §2

BRCA1-BARD1 = BRCA1-BARD1 (Homo sapiens, UniProt P38398+Q99728); assay: BRCA1-BARD1 E3 ligase selectivity; assay type: biochemical; settings: FIG. 2
Chain of BRCA1-BARD1 (P38398 whole entry): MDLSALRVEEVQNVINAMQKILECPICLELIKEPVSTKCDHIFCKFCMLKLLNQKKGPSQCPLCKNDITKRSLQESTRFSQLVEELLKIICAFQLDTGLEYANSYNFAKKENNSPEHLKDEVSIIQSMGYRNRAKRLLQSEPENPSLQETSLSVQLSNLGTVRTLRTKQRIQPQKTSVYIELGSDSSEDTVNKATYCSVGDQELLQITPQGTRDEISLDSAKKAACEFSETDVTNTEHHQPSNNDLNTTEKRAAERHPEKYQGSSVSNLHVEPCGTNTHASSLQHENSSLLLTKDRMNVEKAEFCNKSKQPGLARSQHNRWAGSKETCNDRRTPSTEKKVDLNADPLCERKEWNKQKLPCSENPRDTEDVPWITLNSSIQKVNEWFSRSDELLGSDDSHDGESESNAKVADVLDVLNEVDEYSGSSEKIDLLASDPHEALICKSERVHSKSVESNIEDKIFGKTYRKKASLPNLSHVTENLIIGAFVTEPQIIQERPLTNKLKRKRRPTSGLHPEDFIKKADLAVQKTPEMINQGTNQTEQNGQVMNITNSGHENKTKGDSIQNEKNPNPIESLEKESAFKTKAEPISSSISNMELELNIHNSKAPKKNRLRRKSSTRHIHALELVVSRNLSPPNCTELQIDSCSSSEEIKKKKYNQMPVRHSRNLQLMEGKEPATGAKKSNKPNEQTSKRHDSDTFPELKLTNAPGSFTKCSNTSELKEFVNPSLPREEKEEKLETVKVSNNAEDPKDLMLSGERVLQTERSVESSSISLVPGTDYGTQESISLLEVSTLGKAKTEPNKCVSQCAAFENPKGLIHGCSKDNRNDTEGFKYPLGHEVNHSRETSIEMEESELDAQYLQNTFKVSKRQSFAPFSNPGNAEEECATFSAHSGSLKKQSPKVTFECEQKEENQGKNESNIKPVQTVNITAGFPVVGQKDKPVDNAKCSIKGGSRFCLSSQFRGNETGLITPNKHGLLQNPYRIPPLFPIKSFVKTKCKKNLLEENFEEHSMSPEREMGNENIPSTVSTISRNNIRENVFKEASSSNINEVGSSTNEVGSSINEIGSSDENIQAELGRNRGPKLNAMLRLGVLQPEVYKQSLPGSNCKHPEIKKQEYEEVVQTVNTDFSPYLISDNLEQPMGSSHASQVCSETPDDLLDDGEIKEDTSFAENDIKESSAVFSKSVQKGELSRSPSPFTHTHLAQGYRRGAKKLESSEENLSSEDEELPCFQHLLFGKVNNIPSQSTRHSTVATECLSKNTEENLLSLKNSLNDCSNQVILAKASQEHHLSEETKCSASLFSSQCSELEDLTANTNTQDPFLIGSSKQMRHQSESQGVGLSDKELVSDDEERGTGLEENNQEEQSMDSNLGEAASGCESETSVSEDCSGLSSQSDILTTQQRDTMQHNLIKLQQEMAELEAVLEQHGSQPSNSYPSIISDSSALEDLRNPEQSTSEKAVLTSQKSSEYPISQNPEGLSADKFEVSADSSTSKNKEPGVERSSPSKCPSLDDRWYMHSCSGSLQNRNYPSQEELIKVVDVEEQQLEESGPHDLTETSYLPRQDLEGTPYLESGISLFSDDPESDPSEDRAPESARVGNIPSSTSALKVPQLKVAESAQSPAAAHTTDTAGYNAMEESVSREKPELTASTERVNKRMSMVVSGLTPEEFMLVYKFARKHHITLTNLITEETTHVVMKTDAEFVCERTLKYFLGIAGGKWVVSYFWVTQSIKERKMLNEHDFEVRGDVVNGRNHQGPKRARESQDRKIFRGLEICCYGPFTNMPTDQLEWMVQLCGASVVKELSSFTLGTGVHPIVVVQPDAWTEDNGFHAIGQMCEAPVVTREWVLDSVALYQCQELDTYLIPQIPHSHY
Chain of BRCA1-BARD1 (Q99728 whole entry): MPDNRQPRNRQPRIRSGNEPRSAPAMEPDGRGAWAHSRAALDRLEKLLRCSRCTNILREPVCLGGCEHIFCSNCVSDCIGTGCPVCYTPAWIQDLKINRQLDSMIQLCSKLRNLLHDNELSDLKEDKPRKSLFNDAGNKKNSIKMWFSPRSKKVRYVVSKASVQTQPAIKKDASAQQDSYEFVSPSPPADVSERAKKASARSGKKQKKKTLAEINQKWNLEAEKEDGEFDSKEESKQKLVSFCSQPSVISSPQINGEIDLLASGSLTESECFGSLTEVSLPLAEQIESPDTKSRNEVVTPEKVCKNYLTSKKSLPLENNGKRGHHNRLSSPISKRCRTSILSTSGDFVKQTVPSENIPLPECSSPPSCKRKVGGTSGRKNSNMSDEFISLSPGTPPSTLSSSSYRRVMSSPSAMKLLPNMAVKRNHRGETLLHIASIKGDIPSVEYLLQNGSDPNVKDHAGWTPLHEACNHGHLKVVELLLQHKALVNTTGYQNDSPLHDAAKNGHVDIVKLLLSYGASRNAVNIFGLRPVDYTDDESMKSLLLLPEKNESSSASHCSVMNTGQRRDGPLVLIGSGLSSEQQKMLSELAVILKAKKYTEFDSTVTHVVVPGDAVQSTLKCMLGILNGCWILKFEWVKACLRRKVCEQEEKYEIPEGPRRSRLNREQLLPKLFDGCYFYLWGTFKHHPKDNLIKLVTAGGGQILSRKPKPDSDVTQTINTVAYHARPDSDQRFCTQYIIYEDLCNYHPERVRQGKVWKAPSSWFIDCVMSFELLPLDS
Experimental: as §2, §1

TRIM37 = target: T3, TRIM37 (Homo sapiens, UniProt O94972); assay: TRIM37 E3 ligase selectivity; assay type: biochemical; settings: FIG. 2
T3 sequence (O94972 1-964): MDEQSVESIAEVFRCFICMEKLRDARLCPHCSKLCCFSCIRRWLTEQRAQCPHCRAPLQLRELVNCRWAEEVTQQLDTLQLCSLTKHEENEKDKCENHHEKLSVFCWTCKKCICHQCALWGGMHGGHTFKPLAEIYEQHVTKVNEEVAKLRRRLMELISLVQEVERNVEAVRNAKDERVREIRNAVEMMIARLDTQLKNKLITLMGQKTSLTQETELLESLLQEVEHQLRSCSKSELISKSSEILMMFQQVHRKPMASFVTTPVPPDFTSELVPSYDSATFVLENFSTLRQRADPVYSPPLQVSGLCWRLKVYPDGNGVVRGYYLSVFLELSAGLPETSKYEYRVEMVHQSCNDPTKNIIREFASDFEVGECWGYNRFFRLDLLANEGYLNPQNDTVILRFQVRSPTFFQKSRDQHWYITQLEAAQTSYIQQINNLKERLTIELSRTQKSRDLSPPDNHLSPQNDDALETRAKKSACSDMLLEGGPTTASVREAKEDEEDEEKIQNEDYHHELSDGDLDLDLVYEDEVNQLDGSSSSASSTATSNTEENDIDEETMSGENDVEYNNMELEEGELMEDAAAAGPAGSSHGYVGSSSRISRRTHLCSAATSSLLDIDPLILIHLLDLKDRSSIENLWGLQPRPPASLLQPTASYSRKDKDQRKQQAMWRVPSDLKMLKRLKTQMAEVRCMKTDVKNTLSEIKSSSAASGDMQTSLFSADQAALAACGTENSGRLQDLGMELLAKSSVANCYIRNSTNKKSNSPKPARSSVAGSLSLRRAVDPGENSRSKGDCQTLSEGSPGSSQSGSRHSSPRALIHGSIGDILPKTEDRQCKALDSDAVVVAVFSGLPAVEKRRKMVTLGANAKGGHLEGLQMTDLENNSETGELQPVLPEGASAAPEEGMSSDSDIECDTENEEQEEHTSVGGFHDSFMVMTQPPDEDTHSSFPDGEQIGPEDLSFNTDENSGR
Experimental: as §2, §1

[4] = target: T4, RING1B-BMI1 interaction with nucleosome (Homo sapiens, UniProt Q99496); assay: EMSA assay, RING1B-BMI1 interaction with nucleosome; assay type: binding; settings: FIG. 2D
T4 sequence (Q99496 1-336): T1 sequence (Q99496 1-336)
T4 sequence (P35226 1-326 partner): T1 sequence (P35226 1-326 partner)
Description: as §2

[5] = tested on: PRC1 complex in leukemia K562 cells; assay: H2Aub level / PRC1 activity in K562 cells; assay type: cell-based; settings: FIG. 3
Experimental: FIG. 3. COMPOUND 1 inhibits PRC1 in K562 cells. Knockdown of BMI1 and RING1B in K562 cells results in decrease in H2Aub.
as §1

H2Aub in TEX cells = assay: H2Aub, RNA-seq and ChIP-seq in TEX cells; assay type: cell-based; settings: FIG. 4
Experimental: (§3) FIGS. 4A-F. COMPOUND 1 inhibits PRC1 in TEX cells. FIG. 4A. Inhibition of H2Aub in TEX cells. FIG. 4B. Differentiation of TEX cells upon treatment with COMPOUND 1. […] FIG. 4C. GSEA analysis of TEX cells showing revers of stem cell signature. FIG. 4D. […] FIG. 4E. Gene expression changes upon treatment with COMPOUND 1. FIG. 4F.
as §1

TEX cells = assay: Differentiation and CD34 marker of TEX cells; assay type: cell-based; settings: FIG. 4
Experimental: as §3, §1

M9-ENL1 cells [6] = assay: Colony formation of M9-ENL1 cells; assay type: cell-based; settings: FIG. 5
Experimental: as §1

M9-ENL1 cells [7] = assay: Transplantation of treated M9-ENL1 cells into mice; assay type: in vivo; settings: then transplanted into mice, FIG. 5
Experimental: as §1

primary AML samples = assay: Primary AML samples: H2Aub, colony formation, CD34; assay type: cell-based; settings: FIG. 6

- binding to RING1B-BMI1 (RING1B-BMI1 [1]; ITC and NMR, FIG. 1): binds to RING1B-BMI1
- Kd (RING1B-BMI1 [1]; binds directly to Ring1B-Bmi1, FIG. 1): 2600 nM
- Kd (RING1B-BMI1 [2]): < 20000 nM
- IC50 (RING1B-BMI1 [3]; FIG. 2): ~2000 nM
- RING1B-BMI1 H2Aub activity (RING1B-BMI1 [3]; in vitro, FIG. 2A): inhibits RING1B-BMI1 H2Aub activity
- RING1B-PCGF1 activity (RING1B-PCGF1): inhibits RING1B-PCGF1 activity
- inhibition of BRCA1-BARD1 E3 ligase (BRCA1-BARD1): does not inhibit
- inhibition of TRIM37 E3 ligase (TRIM37): does not inhibit
Compound: CC(C)c1c(-c2cccc3[nH]ccc23)[nH]c(C(=O)O)c1-c1c(Cl)ccc2[nH]ccc12 [COMPOUND 1, 3-(5-Chloro-1H-indol-4-yl)-5-(1H-indol-4-yl)-4-isopropyl-1H-pyrrole-2-carboxylic acid]
- RING1B-BMI1 interaction with nucleosome [4]: inhibits RINIG1B-BMI1 interaction with nucleosome
- PRC1 activity / H2Aub level in K562 cells [5]: blocks the activity of PRC1 complex; also recorded: decreases H2Aub level
- H2Aub in TEX cells (H2Aub in TEX cells): inhibits H2Aub
- global H2Aub (ChIP-seq) (H2Aub in TEX cells): global decrease in H2Aub
- leukemia stem cell signature (RNA-seq) (H2Aub in TEX cells): reversing leukemia stem cell signature
- differentiation of TEX cells (TEX cells): induces differentiation
- stem cell marker CD34 (TEX cells): loss of stem cell marker CD34
- colony formation of M9-ENL1 cells (M9-ENL1 cells [6]): effective in blocking colony formation
- engraftment and leukemia development (M9-ENL1 cells [7]): strongly decreases engraftment and leukemia development
- H2Aub in primary AML samples (primary AML samples): decreases H2Aub
- colony formation, primary AML samples (primary AML samples): inhibits colony formation
- stem cell marker CD34, primary AML samples (primary AML samples): decrease stem sell marker CD34
